From patent US9187472B2 (AbbVie Inc., priority 2012, dated 2015)

Tested on: PC3 cells
Test: NAMPT Cell Proliferation Assay
Assay type: cell-based
Conditions: Homo sapiens, PC-3, 120 h, 5 days incubation, cell viability by Cell Titer Glo
In short: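 IC50 values derive from sigmoidal dose-response fits of percent inhibition of PC3 viability, measured by luminescence after 5 days of compound treatment. Cells (500/well, RPMI containing 10% heat-inactivated FBS) are allowed to attach overnight, and compounds are tested at 10-fold dilutions between 10 μM and 1×10^−5 μM.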

| IC50 | Structure (SMILES) |
| --- | --- |
| 80.9 nM | Cc1cccc(C(=O)N2CCC(c3ccc(C(=O)NCc4ccn5ccnc5c4)cc3)CC2)c1O [Example 937, 4-[1-(2-hydroxy-3-methylbenzoyl)piperidin-4-yl]-N-(imidazo[1,2-a]pyridin-7-ylmethyl)benzamide] |
| 6.27 nM | O=C(NCc1ccn2ccnc2c1)Nc1ccc(C2CCN(C(=O)c3cccnc3Cl)CC2)cc1 [Example 938, 1-(4-{1-[(2-chloropyridin-3-yl)carbonyl]piperidin-4-yl}phenyl)-3-(imidazo[1,2-a]pyridin-7-ylmethyl)urea] |
| 0.691 nM | CC(C)(C)CC(=O)N1CCC(c2ccc(NC(=O)NCc3ccn4ccnc4c3)cc2)CC1 [Example 940, 1-{4-[1-(3,3-dimethylbutanoyl)piperidin-4-yl]phenyl}-3-(imidazo[1,2-a]pyridin-7-ylmethyl)urea] |
| 0.519 nM | CC1=C(C(=O)N2CCC(c3ccc(NC(=O)NCc4ccn5ccnc5c4)cc3)CC2)CCC1 [Example 941, 1-(imidazo[1,2-a]pyridin-7-ylmethyl)-3-(4-{1-[(2-methylcyclopent-1-en-1-yl)carbonyl]piperidin-4-yl}phenyl)urea] |
| 3.36 nM | COc1ccc(C(=O)N2CCC(c3ccc(NC(=O)NCc4ccn5ccnc5c4)cc3)CC2)c(OC)c1 [Example 944, 1-{4-[1-(2,4-dimethoxybenzoyl)piperidin-4-yl]phenyl}-3-(imidazo[1,2-a]pyridin-7-ylmethyl)urea] |
| 2.38 nM | O=C(NCc1ccn2ccnc2c1)Nc1ccc(C2CCN(C(=O)C3CC=CCC3)CC2)cc1 (centres unmarked) [Example 945, 1-{4-[1-(cyclohex-3-en-1-ylcarbonyl)piperidin-4-yl]phenyl}-3-(imidazo[1,2-a]pyridin-7-ylmethyl)urea] |
| 3.28 nM | COc1ccccc1CC(=O)N1CCC(c2ccc(NC(=O)NCc3ccn4ccnc4c3)cc2)CC1 [Example 947, 1-(imidazo[1,2-a]pyridin-7-ylmethyl)-3-(4-{1-[(2-methoxyphenyl)acetyl]piperidin-4-yl}phenyl)urea] |
| 25.4 nM | COc1cccc(OC)c1C(=O)N1CCC(c2ccc(NC(=O)NCc3ccn4ccnc4c3)cc2)CC1 [Example 949, 1-{4-[1-(2,6-dimethoxybenzoyl)piperidin-4-yl]phenyl}-3-(imidazo[1,2-a]pyridin-7-ylmethyl)urea] |
| 634 nM | CCN(CC)CCC(=O)N1CCC(c2ccc(NC(=O)NCc3ccn4ccnc4c3)cc2)CC1 [Example 950, 1-{4-[1-(N,N-diethyl-beta-alanyl)piperidin-4-yl]phenyl}-3-(imidazo[1,2-a]pyridin-7-ylmethyl)urea] |
| 2.35 nM | O=C(NCc1ccn2ccnc2c1)Nc1ccc(C2CCN(C(=O)c3cccc4c3CCC4=O)CC2)cc1 [Example 953, 1-(imidazo[1,2-a]pyridin-7-ylmethyl)-3-(4-{1-[(1-oxo-2,3-dihydro-1H-inden-4-yl)carbonyl]piperidin-4-yl}phenyl)urea] |
| 2.56 nM | C/C=C(\C)C(=O)N1CCC(c2ccc(NC(=O)NCc3ccn4ccnc4c3)cc2)CC1 [Example 955, 1-(imidazo[1,2-a]pyridin-7-ylmethyl)-3-(4-{1-[(2E)-2-methylbut-2-enoyl]piperidin-4-yl}phenyl)urea] |
| 3.51 nM | Cc1cccc(C(=O)N2CCC(c3ccc(NC(=O)NCc4ccn5ccnc5c4)cc3)CC2)c1O [Example 957, 1-{4-[1-(2-hydroxy-3-methylbenzoyl)piperidin-4-yl]phenyl}-3-(imidazo[1,2-a]pyridin-7-ylmethyl)urea] |
| 9.76 nM | CC(C)n1ccc(C(=O)N2CCC(c3ccc(C(=O)NCc4ccn5ccnc5c4)cc3)CC2)n1 [Example 959, N-(imidazo[1,2-a]pyridin-7-ylmethyl)-4-(1-{[1-(propan-2-yl)-1H-pyrazol-3-yl]carbonyl}piperidin-4-yl)benzamide] |
| 8.94 nM | Cn1nc2c(c1C(=O)N1CCC(c3ccc(C(=O)NCc4ccn5ccnc5c4)cc3)CC1)CCCC2 [Example 961, N-(imidazo[1,2-a]pyridin-7-ylmethyl)-4-{1-[(2-methyl-4,5,6,7-tetrahydro-2H-indazol-3-yl)carbonyl]piperidin-4-yl}benzamide] |
| 16.1 nM | O=C(NCc1ccn2ccnc2c1)c1ccc(C2CCN(C(=O)c3onc4c3CCCC4)CC2)cc1 [Example 962, N-(imidazo[1,2-a]pyridin-7-ylmethyl)-4-[1-(4,5,6,7-tetrahydro-2,1-benzoxazol-3-ylcarbonyl)piperidin-4-yl]benzamide] |
| 8.31 nM | O=C(NCc1ccn2ccnc2c1)c1ccc(C2CCN(C(=O)c3ncccc3Cl)CC2)cc1 [Example 965, 4-{1-[(3-chloropyridin-2-yl)carbonyl]piperidin-4-yl}-N-(imidazo[1,2-a]pyridin-7-ylmethyl)benzamide] |

Continued, compound first:

| Structure (SMILES) | IC50 |
| --- | --- |
| N#Cc1ccc(C(=O)N2CCC(c3ccc(C(=O)NCc4ccn5ccnc5c4)cc3)CC2)c(Cl)c1 [Example 934, 4-[1-(2-chloro-4-cyanobenzoyl)piperidin-4-yl]-N-(imidazo[1,2-a]pyridin-7-ylmethyl)benzamide] | 6.38 nM |
| C/C=C(\C)C(=O)N1CCC(c2ccc(C(=O)NCc3ccn4ccnc4c3)cc2)CC1 [Example 935, N-(imidazo[1,2-a]pyridin-7-ylmethyl)-4-{1-[(2E)-2-methylbut-2-enoyl]piperidin-4-yl}benzamide] | 10.3 nM |
| COc1ccc(C)cc1CC(=O)N1CCC(c2ccc(C(=O)NCc3ccn4ccnc4c3)cc2)CC1 [Example 936, N-(imidazo[1,2-a]pyridin-7-ylmethyl)-4-{1-[(2-methoxy-5-methylphenyl)acetyl]piperidin-4-yl}benzamide] | 32.5 nM |
| CC(C)=CC(=O)N1CCC(c2ccc(NC(=O)NCc3ccn4ccnc4c3)cc2)CC1 [Example 939, 1-(imidazo[1,2-a]pyridin-7-ylmethyl)-3-{4-[1-(3-methylbut-2-enoyl)piperidin-4-yl]phenyl}urea] | > 10000 nM |
| CCC(CC)C(=O)N1CCC(c2ccc(NC(=O)NCc3ccn4ccnc4c3)cc2)CC1 [Example 942, 1-{4-[1-(2-ethylbutanoyl)piperidin-4-yl]phenyl}-3-(imidazo[1,2-a]pyridin-7-ylmethyl)urea] | 1.02 nM |
| O=C(NCc1ccn2ccnc2c1)Nc1ccc(C2CCN(C(=O)COc3ccc(F)cc3)CC2)cc1 [Example 943, 1-(4-{1-[(4-fluorophenoxy)acetyl]piperidin-4-yl}phenyl)-3-(imidazo[1,2-a]pyridin-7-ylmethyl)urea] | 24.4 nM |
| COc1ccc(OC)c(C(=O)N2CCC(c3ccc(NC(=O)NCc4ccn5ccnc5c4)cc3)CC2)c1 [Example 946, 1-{4-[1-(2,5-dimethoxybenzoyl)piperidin-4-yl]phenyl}-3-(imidazo[1,2-a]pyridin-7-ylmethyl)urea] | 5.94 nM |
| O=C(NCc1ccn2ccnc2c1)Nc1ccc(C2CCN(C(=O)C(CO)c3ccccc3)CC2)cc1 (centres unmarked) [Example 948, 1-{4-[1-(3-hydroxy-2-phenylpropanoyl)piperidin-4-yl]phenyl}-3-(imidazo[1,2-a]pyridin-7-ylmethyl)urea] | 5.39 nM |
| Cc1cc(C(=O)N2CCC(c3ccc(NC(=O)NCc4ccn5ccnc5c4)cc3)CC2)cc(Cl)n1 [Example 951, 1-(4-{1-[(2-chloro-6-methylpyridin-4-yl)carbonyl]piperidin-4-yl}phenyl)-3-(imidazo[1,2-a]pyridin-7-ylmethyl)urea] | 63.9 nM |
| COc1cccc(CC(=O)N2CCC(c3ccc(NC(=O)NCc4ccn5ccnc5c4)cc3)CC2)c1 [Example 952, 1-(imidazo[1,2-a]pyridin-7-ylmethyl)-3-(4-{1-[(3-methoxyphenyl)acetyl]piperidin-4-yl}phenyl)urea] | 10.3 nM |
| N#Cc1ccc(C(=O)N2CCC(c3ccc(NC(=O)NCc4ccn5ccnc5c4)cc3)CC2)c(Cl)c1 [Example 954, 1-{4-[1-(2-chloro-4-cyanobenzoyl)piperidin-4-yl]phenyl}-3-(imidazo[1,2-a]pyridin-7-ylmethyl)urea] | 2.76 nM |
| O=C(NCc1ccn2ccnc2c1)Nc1ccc(C2CCN(C(=O)Cc3c[nH]c4ccccc34)CC2)cc1 [Example 956, 1-(imidazo[1,2-a]pyridin-7-ylmethyl)-3-{4-[1-(1H-indol-3-ylacetyl)piperidin-4-yl]phenyl}urea] | 8.83 nM |
| O=C(NCc1ccn2ccnc2c1)c1ccc(C2CCN(C(=O)N3CCCC3)CC2)cc1 [Example 958, N-(imidazo[1,2-a]pyridin-7-ylmethyl)-4-[1-(pyrrolidin-1-ylcarbonyl)piperidin-4-yl]benzamide] | 21.4 nM |
| Cn1nc(C2CC2)cc1C(=O)N1CCC(c2ccc(C(=O)NCc3ccn4ccnc4c3)cc2)CC1 [Example 960, 4-{1-[(3-cyclopropyl-1-methyl-1H-pyrazol-5-yl)carbonyl]piperidin-4-yl}-N-(imidazo[1,2-a]pyridin-7-ylmethyl)benzamide] | 6.13 nM |
| Cc1ccc(F)c(C(=O)N2CCC(c3ccc(C(=O)NCc4ccn5ccnc5c4)cc3)CC2)n1 [Example 963, 4-{1-[(3-fluoro-6-methylpyridin-2-yl)carbonyl]piperidin-4-yl}-N-(imidazo[1,2-a]pyridin-7-ylmethyl)benzamide] | 19.5 nM |
| O=C(NCc1ccn2ccnc2c1)c1ccc(C2CCN(C(=O)c3ccnc(Cl)c3F)CC2)cc1 [Example 964, 4-{1-[(2-chloro-3-fluoropyridin-4-yl)carbonyl]piperidin-4-yl}-N-(imidazo[1,2-a]pyridin-7-ylmethyl)benzamide] | 6.22 nM |
| O=C(NCc1ccn2ccnc2c1)c1ccc(C2CCN(C(=O)C3(c4ccccn4)CC3)CC2)cc1 [Example 966, N-(imidazo[1,2-a]pyridin-7-ylmethyl)-4-(1-{[1-(pyridin-2-yl)cyclopropyl]carbonyl}piperidin-4-yl)benzamide] | 2.09 nM |
| O=C(NCc1ccn2ccnc2c1)c1ccc(C2CCN(C(=O)c3ccn(C4CCCC4)n3)CC2)cc1 [Example 967, 4-{1-[(1-cyclopentyl-1H-pyrazol-3-yl)carbonyl]piperidin-4-yl}-N-(imidazo[1,2-a]pyridin-7-ylmethyl)benzamide] | 3.96 nM |
| CC(Oc1cccc(F)c1)C(=O)N1CCC(c2ccc(C(=O)NCc3ccn4ccnc4c3)cc2)CC1 (centres unmarked) [Example 968, 4-{1-[2-(3-fluorophenoxy)propanoyl]piperidin-4-yl}-N-(imidazo[1,2-a]pyridin-7-ylmethyl)benzamide] | 1.77 nM |
